Patent US20230381142A1, “ANTILEISHMANIAL COMPOUNDS, COMPOSITIONS AND USE THEREOF” (TRUSTEES OF BOSTON UNIVERSITY, priority 2022, published 2023)
Read-outs that look alike come from different tables or passages of the source.

How the values were obtained:
host THP-1 macrophages = experiment: GSK inMac assay, host cell toxicity readout (LD MAC); type: cell-based, human; settings: for THP-1 Host Cell CC50: host THP-1 cells
Outline: (§1)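 MAC EC50 reflects THP-1 host cell counts, measured within GSK's inMac L. donovani infection assay that also scores intracellular amastigotes and infected-cell percentage.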

[1] = tested on: L. donovani intracellular amastigotes in B10R cells; experiment: UCSD L. donovani infection assay (Assay Conditions D); type: cell-based; settings: B10R cells; for L. donovani amastigotes EC75 (B10R cells): footnote d; for EC50: Leishmania donovani, values marked d, read-out: L. donovani amastigotes EC50 (B10R cells)
Description: (§2) Assay Conditions D: B10R cells (CVCL_0155) were seeded at 300 cells/well, and L. donovani WT promastigotes in stationary phase (7th day after passage) were added at 6,000 parasites/well (ratio of 20 parasites/cell). Both cells and parasites were seeded in DMEM High-Glucose medium (Gibco, cat. no. 11995065) containing 5% Fetal Bovine Serum (Sigma-Aldrich, cat. no. F2442) and 1% Penicillin-Streptomycin (Gibco, cat. no. 15140122). Cells and parasites were incubated in the presence of the compounds for 72 h at 37° C. and 5% C02. Plates were then fixed with 4% formaldehyde solution for at least 1 h, then washed with 1×PBS and stained with 5 μg/mL DAPI. Plates were read using an ImageXpress microscope (Molecular Devices) and analyzed by MetaXpress software (Molecular Devices) using a custom module optimized for this assay. […] Compounds were tested in a 10-point 2-fold serial dilution in 3 technical replicates, and 2 biological replicates. After 72 h, plates were fixed and stained with DAPI as described above. Images were acquired on an ImageXpress microscope, and analyzed using the MetaXpress custom module.
as §2, with “Compounds were obtained as 0.2 μmoles of dried film for primary single point screening. Each compound was diluted in DMSO to 10 μM final testing concentration. These compounds were tested in 2 biological replicates. The compounds were pre-spotted onto 384-well assay plates in single concentration.” for “Assay Conditions D:”, “CO2.” for “C02.”, “module. The DRCs were plotted, half-effective concentration (EC50) and half-cytotoxic concentration (CC50) were calculated using GraphPad Prism Software, version 6.05 (GraphPad Software, San Diego, CA).” for “module.”

[2] = GSK inMac assay, host cell toxicity readout (LD MAC); type: cell-based, human; settings: human
Outline: as §1

[3] = tested on: L. donovani intracellular amastigotes infecting THP-1 macrophages; experiment: GSK intramacrophage L. donovani assay (LD AMMAC, inMac; Assay Conditions C); type: cell-based; settings: Leishmania donovani
Outline: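 EC50 values come from counting amastigotes per infected THP-1 macrophage (AMMAC). Parallel read-outs give percentage of infected cells per well (INFCELL) and a macrophage-number toxicity EC50 (MAC).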

[4] = Property forecast index (PFI = ChromLogD7.4 + aromatic rings); type: physicochemical
Description: At the outset of the project, compound 1 was evaluated against GSK's established criteria for antileishmanial compound advancement (Table 2). Some of these assessments were performed on racemic 1, while chiral separation was also pursued of the 1 racemate to determine the active enantiomer. […] Based on this promising profile, it progressed into medicinal chemistry optimization to better understand structure-activity relationships (SAR) toward improved potency, as well as structure-property relationships (SPR) with an eye toward reducing PFI and plasma protein binding.

[5] = footnote c, read-out: THP-1 Host Cell CC50
[6] = THP-1 cells, values marked c, read-out: L. donovani amastigotes EC50 (THP-1 cells)
[7] = values marked c: THP-1 cells, read-out: L. donovani amastigotes EC50 (μM, THP-1 or B10R cells)

EC50 [3, 6] [µM]	Structure (SMILES)	CC50 [2, 5] [µM]	also measured
7.9	COc1ccccc1N1C(=O)c2[nH]nc(CC(C)C)c2C1c1cccc(Cl)c1 (stereo not drawn) [CMLD011134]	15.8	–
4	CC(C)Cc1n[nH]c2c1C(c1ccsc1)N(c1ccc(C(C)(C)C)cc1)C2=O (stereo not drawn) [CMLD011135]	> 50	–
7.9	COc1ccccc1N1C(=O)c2[nH]nc(CC(C)C)c2C1c1ccsc1 (stereo not drawn) [CMLD011138]	15.8	–
5	COc1cccc(N2C(=O)c3[nH]nc(CC(C)C)c3C2c2cccc(C(F)(F)F)c2)c1 (stereo not drawn) [CMLD011140]	20	–
> 50	COc1ccc(N2C(=O)c3[nH]nc(CC(C)C)c3C2c2ccncc2)cc1 (stereo not drawn) [CMLD011142]	> 50	–
> 100	CC(C)Cc1n[nH]c2c1C(c1ccc(F)cc1)N(c1ccc(S(N)(=O)=O)cc1)C2=O (stereo not drawn) [CMLD011495]	20	–
10	COc1ccc(N2C(=O)c3[nH]nc(CC(C)C)c3C2c2ccncc2Cl)cc1 (stereo not drawn) [CMLD011496]	20	–
2.5	CC(C)Cc1n[nH]c2c1C(c1c(Cl)cccc1Cl)N(c1ccc3c(c1)OCO3)C2=O (stereo not drawn) [CMLD011547]	20	–
> 100	CC(C)Cc1n[nH]c2c1C(c1ccc(F)cc1)N(c1ccc3[nH]c(O)nc3c1)C2=O (stereo not drawn) [CMLD011556]	20	–
> 100	COc1ccc(N2C(=O)c3[nH]nc(CC(C)C)c3C2c2cccnc2Cl)cc1 (stereo not drawn) [CMLD011559]	20	–
6.3	COc1ccc(N2C(=O)c3[nH]nc(CC(C)C)c3C2c2c(Cl)cccc2Cl)cc1F (stereo not drawn) [CMLD011568]	20	–
5	COc1ccc(N2C(=O)c3[nH]nc(CC(C)C)c3C2c2c(Cl)cccc2Cl)cn1 (stereo not drawn) [CMLD011569]	20	–
25.1	COc1ccc(N2C(=O)c3[nH]nc(CC(C)C)c3C2c2cccnc2OC)cc1 (stereo not drawn) [CMLD0011576]	10	–
> 100	COc1ccc(N2C(=O)c3[nH]nc(CC(C)C)c3C2c2ncccc2OC)cc1 (stereo not drawn) [CMLD011578]	20	–
> 100	COc1ccc(N2C(=O)c3[nH]nc(CC(C)C)c3C2c2cnccc2Cl)cc1 (stereo not drawn) [CMLD011579]	20	–

More lines, now with the values behind:

Structure (SMILES)	EC50 [3, 6] [µM]	CC50 [2, 5] [µM]	also measured
CCn1cc(N2C(=O)c3[nH]nc(CC(C)C)c3C2c2ccccc2C(F)(F)F)cn1 (stereo not drawn) [BUCMD00671]	–	–	THP-1 Host Cell CC50 (host THP-1 macrophages): >10 µM; L. donovani amastigotes EC75 (μM, B10R cells) [1]: >5 µM
CC(C)Cc1n[nH]c2c1C(c1ccc(F)c(F)c1)N(c1cncc(F)c1)C2=O (stereo not drawn) [BUCMD00701]	–	–	THP-1 Host Cell CC50 (host THP-1 macrophages): >10 µM; L. donovani amastigotes EC75 (μM, B10R cells) [1]: >5 µM
CC(C)Cc1n[nH]c2c1C(c1ccc(F)cc1)N(c1ccc3ncnn3c1)C2=O (stereo not drawn) [CMLD010888]	5	> 50	L. donovani amastigotes EC75 (B10R cells) [1]: 2.3 µM
CC(C)Cc1n[nH]c2c1C(c1ccccc1Cl)N(c1ccc3ncnn3c1)C2=O (stereo not drawn) [CMLD010921]	–	> 20	L. donovani amastigotes EC75 (B10R cells) [1]: 0.6 µM; EC50 [1]: 0.6 µM
C#CCn1nc2c(c1CC(C)C)C(c1ccc(F)cc1)N(c1ccc(OC)cc1)C2=O (stereo not drawn) [CMLD010986]	–	–	CC50 ([2]; host THP-1 cells): 25.1 µM; L. donovani amastigotes EC75 (μM, B10R cells) [1]: >10 µM; EC50 [3, 7]: 3.2 µM
C#CCn1nc(CC(C)C)c2c1C(=O)N(c1ccc(OC)cc1)C2c1ccc(F)cc1 (stereo not drawn) [CMLD010987]	1.6	20	L. donovani amastigotes EC75 (B10R cells) [1]: 4.0 µM
CC(C)Cc1n[nH]c2c1C(c1ccc(F)cc1)N(CCN1CCCC1)C2=O (stereo not drawn) [CMLD011072]	15.9	> 50	L. donovani amastigotes EC75 (B10R cells) [1]: >10 µM
COc1cccc(N2C(=O)c3[nH]nc(CC(C)C)c3C2c2cccc(Cl)c2)c1 (stereo not drawn) [CMLD011133]	5	25.1	–
CC(C)Cc1n[nH]c2c1C(c1ccsc1)N(c1ccc3c(c1)OCO3)C2=O (stereo not drawn) [CMLD011136]	–	–	CC50 ([2]; host THP-1 cells): ≥ 50.1 µM; L. donovani amastigotes EC75 (μM, B10R cells) [1]: 3.6 µM; EC50 [3, 7]: 5 µM
COc1ccc(N2C(=O)c3[nH]nc(CC(C)C)c3C2c2ccsc2)cn1 (stereo not drawn) [CMLD011137]	10	25.1	–
COc1ccccc1N1C(=O)c2[nH]nc(CC(C)C)c2C1c1cccc(C(F)(F)F)c1 (stereo not drawn) [CMLD011141]	7.9	20	–
CC(C)Cc1n[nH]c2c1C(c1ccc(F)cc1)N(c1ccccc1N(C)C)C2=O (stereo not drawn) [CMLD011499]	3.2	10	–
COc1ccccc1C1c2c(CC(C)C)n[nH]c2C(=O)N1c1ccc2c(c1)OCO2 (stereo not drawn) [CMLD011546]	–	> 20	L. donovani amastigotes EC75 (B10R cells) [1]: 0.3 µM; EC50 [1]: 0.3 µM
CC(C)Cc1n[nH]c2c1C(c1c(Cl)cccc1Cl)N(c1ccc(Br)cc1)C2=O (stereo not drawn) [CMLD011550]	7.9	20	–
COc1ncc(N2C(=O)c3[nH]nc(CC(C)C)c3C2c2ccc(F)cc2)cc1C (stereo not drawn) [CMLD011555]	–	–	CC50 ([2]; host THP-1 cells): 20 µM; L. donovani amastigotes EC75 (μM, B10R cells) [1]: 1.7 µM; EC50 [3, 7]: 10 µM
CC(C)Cc1n[nH]c2c1C(c1ccc(F)cc1)N(c1ccc3[nH]cnc3c1)C2=O (stereo not drawn) [CMLD011557]	> 100	20	–
CC(C)Cc1n[nH]c2c1C(c1ccc(F)cc1)N(c1ccc(S(=O)(=O)N3CCCC3)cc1)C2=O (stereo not drawn) [CMLD011558]	> 100	20	–
CC(C)Cc1n[nH]c2c1C(c1ccc(F)cc1)N(c1ccc(N3CCCC3=O)cc1)C2=O (stereo not drawn) [CMLD011560]	–	–	CC50 ([2]; host THP-1 cells): 20 µM; L. donovani amastigotes EC75 (μM, B10R cells) [1]: 1.0 µM; EC50 [3, 7]: 4 µM
COc1ccc(N2C(=O)c3[nH]nc(CC(C)C)c3C2c2ccc(F)cc2OC)cc1F (stereo not drawn) [CMLD011573]	0.5	7.9	–
COc1ccc(N2C(=O)c3[nH]nc(CC(C)C)c3C2c2ncccc2Cl)cc1 (stereo not drawn) [CMLD011575]	10	20	–
COc1ccc(N2C(=O)c3[nH]nc(CC(C)C)c3C2c2cnccc2OC)cc1 (stereo not drawn) [CMLD011577]	10	20	–
COc1ccc(N2C(=O)c3[nH]nc(CC(C)C)c3C2c2ccccc2Br)cn1 (stereo not drawn) [CMLD012218]	–	> 20	L. donovani amastigotes EC75 (B10R cells) [1]: 0.4 µM; EC50 [1]: 1 µM
COc1ccc(N2C(=O)c3[nH]nc(CC(C)C)c3C2c2ccc(F)c(F)c2)cc1 (stereo not drawn) [CMLD013640]	5	25.1	–
CCCCc1n[nH]c2c1C(c1ccc(F)cc1)N(c1ccc(OC)cc1)C2=O (stereo not drawn) [Compound 11]	–	–	EC50 (host THP-1 macrophages; Homo sapiens, THP-1, cytotoxicity against host THP-1 macrophages): 2.5 µM; PFI [4]: 8.4; EC50 ([3]; THP-1, read-out: potency (antileishmanial, text to Table 3)): ~0.3 µM; EC50 ([3]; growth inhibition of L. donovani intracellular amastigotes infecting THP-1 macrophages, read-out: LD AMMAC EC50): 0.1 µM
